Results reported in PMC6272341, “Synthesis and Biological Evaluation of N-Alkoxyphenyl-3-hydroxynaphthalene-2-carboxanilides” (Molecules, 2015).
In brackets after ≈: the same amount, converted by molar mass. Read-outs that look alike come from different tables or passages of the source.

What was measured:
[1] = test system: M. tuberculosis H37Ra ATCC 25177; assay: MTT assay of mycobacterial viability; assay type: cell-based; settings: Mycobacterium tuberculosis, 168 h; at the lowest tested concentration 8 µg/mL, ca. 24 µM; 7 days
Experimental: The MTT assay is a well-characterized method of assessing cell growth through measurement of respiration. For the purpose of this assay, an MTT measured viability of M. tuberculosis H37Ra of less than 70% after exposure to the MIC of each tested compound was considered a positive result.
For the MTT assay, the outer wells of a 96-well plate were filled with 200 µL of sterile water, and the inner wells were filled with 100 µL of the tested compound at the concentration to be examined. Compounds were prepared as previously stated and diluted in Middlebrook media to achieve the desired concentration. Mycobacterium tuberculosis H37Ra ATCC 25177 was suspended in ODAC supplemented Middlebrook broth at a MacFarland standard of 1.0 and then diluted through a 1:20, using Middlebrook broth as a diluent. The diluted mycobacteria (100 µL) were added to each well containing the compound to be tested. A negative growth control was composed of 100 µL of DMSO and 100 µL of media, and the diluted mycobacteria in broth absent of inhibiting compounds were used as a positive growth control. All compounds and controls were prepared in triplicate. Plates were incubated at 37 °C for 7 days. After the incubation period, 10% well volume of MTT reagent was mixed into each well and incubated at 37 °C for 24 h. The reagent and media were then aspirated from the wells, to which 50 µL 99% isopropanol was then added, and plates were read at 570 nm. The absorbance readings from the cells, grown in the presence of the tested compounds, were compared with uninhibited cell growth (using DMSO as the blank) to determine the relative percent viability. The percent viability was determined through the MTT assay. The percent viability is calculated through comparison of a measured value against that of the uninhibited control: %viability = OD570E/OD570P × 100, where OD570E is the reading from the compound-exposed cells, while OD570P is the reading from the uninhibited cells (positive control). Cytotoxic potential is determined by a percent viability of <70%.

S. aureus ATCC 29213 = assay: In vitro antibacterial susceptibility testing, broth dilution micro-method (MIC); settings: Staphylococcus aureus, ATCC29213, 24 h, read-out: MIC SA
[2] = test system: methicillin-resistant S. aureus clinical isolate SA 3202; assay: as above; settings: 24 h; for MIC: Staphylococcus aureus, MRSA, read-out: MIC MRSA 3202, clinical isolate MRSA 3202, 37 °C, MH broth
[3] = test system: methicillin-resistant S. aureus clinical isolate SA 630; assay: as above; settings: 24 h; for MIC: Staphylococcus aureus, MRSA, read-out: MIC MRSA SA 630, clinical isolate MRSA SA 630, 37 °C, MH broth
[4] = test system: methicillin-resistant S. aureus clinical isolate MRSA 63718; assay: as above; settings: for MIC: Staphylococcus aureus, MRSA, read-out: MIC MRSA 63718, clinical isolate MRSA 63718
[5] = test system: M. tuberculosis H37Ra ATCC 25177; assay: In vitro antimycobacterial evaluation, alamarBlue (MIC); assay type: cell-based; settings: Mycobacterium tuberculosis, 168 h, read-out: MIC MT
Experimental: The evaluation of the in vitro antimycobacterial activity of the compounds was performed against M. tuberculosis H37Ra ATCC 25177 [25] and clinical isolate of M. avium subsp. paratuberculosis CIT03 [26], see Table 1. The activity of compounds was expressed as the minimum inhibitory concentration (MIC) that is defined for mycobacteria as a 90% or greater (IC90) reduction of growth in comparison with the control. The MIC/IC90 value is routinely and widely used in bacterial assays, being a standard detection limit according to the Clinical and Laboratory Standards Institute.
Mycobacterium tuberculosis H37Ra ATCC 25177 and well characterised clinical isolate M. avium subsp. paratuberculosis CIT03 were grown in Middlebrook broth (MB), supplemented with Oleic-Albumin-Dextrose-Catalase supplement (Becton Dickinson, Oxford, UK) and mycobactin J (2 μg/mL). Identification of these isolates was performed using biochemical and molecular protocols. At log phase growth, a culture sample (10 mL) was centrifuged at 15,000 rpm/20 min using a bench top centrifuge (Model CR 4-12, Jouan Inc., Winchester, VA, USA). Following removal of the supernatant, the pellet was washed in fresh Middlebrook 7H9GC broth and re-suspended in fresh supplemented MB (10 mL). The turbidity was adjusted to match McFarland standard No. 1 (3 × 10^8 cfu) with MB broth. A further 1:20 dilution of the culture was then performed in MB broth. The antimicrobial susceptibility of all three mycobacterial species was investigated in a 96-well plate format. In these experiments, sterile deionised water (300 µL) was added to all outer-perimeter wells of the plates to minimize evaporation of the medium in the test wells during incubation. Sample wells were composed of 100 µL of test compound dilution and 100 µL of the bacterial stock being tested against. Dilutions of each compound were prepared in duplicate. For all synthesized compounds, final concentrations ranged from 1000 μg/mL to 8 μg/mL. All compounds were prepared in DMSO and subsequent dilutions were made in supplemented MB. The plates were sealed with parafilm and incubated at 37 °C, for 7 days in the case of M. tuberculosis and 11 days in the case of M. avium subsp. paratuberculosis. Following incubation, a 10% addition of alamarBlue (AbD Serotec, Kidlington, UK) was mixed into each well and readings at 570 nm and 600 nm were taken, initially for background subtraction and subsequently after 24 h re-incubation. The background subtraction is necessary for strongly coloured compounds, where the colour may interfere with the interpretation of any colour change. For non-interfering compounds, a blue colour in the well was interpreted as an absence of growth and a pink colour was scored as growth. […] The MIC value is routinely and widely used in bacterial assays and is a standard detection limit according to the Clinical and Laboratory Standards Institute (CLSI,). Rifampicin (Sigma-Aldrich) was used as the standard as it is clinically used antimycobacterial drugs.

[6] = test system: photosynthetic electron transport in spinach chloroplasts; assay: Inhibition of photosynthetic electron transport (PET), DCPIP photoreduction (Hill reaction); assay type: biochemical, spinach (Spinacia oleracea L.)
Experimental: The PET inhibiting activity of the compounds was expressed by IC50 values. […] The aqueous solubility of the para-substituted compounds was limited; therefore IC50 values could not be determined due to precipitation of compounds during experiment. […]
Chloroplasts were prepared from spinach (Spinacia oleracea L.) according to Masarovicova and Kralova. The inhibition of photosynthetic electron transport (PET) in spinach chloroplasts was determined spectrophotometrically (Genesys 6, Thermo Scientific Corporation), using an artificial electron acceptor 2,6-dichlorophenol-indophenol (DCPIP) according to Kralova et al., and the rate of photosynthetic electron transport was monitored as a photoreduction of DCPIP. The measurements were carried out in phosphate buffer (20.0 mM, pH 7.2) containing sucrose (0.4 M), MgCl2 (5.0 mM) and NaCl (15.0 mM). The chlorophyll content was 30 mg/L in these experiments and the samples were irradiated (~100 W/m^2 with 10 cm distance) with a halogen lamp (250 W) using a 4 cm water filter to prevent warming of the samples (suspension temperature 22 °C). The studied compounds were dissolved in DMSO due to their limited aqueous solubility. The applied DMSO concentration (up to 4%) had negligible effect on the photochemical activity in isolated spinach chloroplasts (observed differences in DCPIP photoreduction due DMSO addition were within experimental error). The inhibitory efficiency of the studied compounds was expressed by IC50 values, i.e., by molar concentration of the compounds causing 50% decrease in DCPIP photoreduction relative to the untreated control. […] All reagents used in this study were of analytical grade and were purchased from Sigma.

[7] = test system: clinical isolate of M. avium subsp. paratuberculosis CIT03; assay: In vitro antimycobacterial evaluation, alamarBlue (MIC); assay type: cell-based; settings: Mycobacterium avium, 264 h, read-out: MIC MAP
[8] = test system: human monocytic leukemia THP-1 cells; settings: 24 h
[9] = test system: Chla-protein complexes of photosystem II in spinach chloroplasts; assay: Chlorophyll a fluorescence emission spectra in spinach chloroplasts; assay type: biochemical, spinach (Spinacia oleracea L.); settings: 0, 102, 204, 408 and 612 μM; λex = 436 nm; band at 686 nm
Excerpt: The studied compounds affected chlorophyll a (Chla) fluorescence in spinach chloroplasts indicating their interactions with constituents of photosynthetic apparatus. […] The extent of perturbation of Chla-protein complexes in the thylakoid membrane is reflected in the sharpness of decreased fluorescence of Chla pigment. A similar decrease of Chla fluorescence in plant chloroplasts was also observed previously after treatment with ring-substituted 1-hydroxynaphthalene-2-carboxanilides, 2-hydroxynaphthalene-1-carboxanilides, 5-bromo- and 3,5-dibromo-2-hydroxy-N-phenyl-benzamides and ring-substituted 4-arylamino-7-chloroquinolinium chlorides.
The emission fluorescence spectra were recorded on a fluorescence spectrophotometer F-2000 (Hitachi, Tokyo, Japan) at room temperature (24 °C). The samples of chloroplast suspension (10 mg chlorophyll/L) with and without the studied inhibitor were excited at 436 nm, using an excitation slit 20 nm and emission slit 10 nm, and were kept in the dark for 2 min prior to the measurement. Due to low aqueous solubility the compounds were added to a chloroplast suspension in DMSO solution. The DMSO concentration in all samples was the same as in the control (10%).

[10] = M. avium subsp. paratuberculosis CIT03, 11 days, 37 °C, alamarBlue, MIC/IC90
[11] = M. tuberculosis H37Ra, 7 days, 37 °C, alamarBlue, MIC/IC90

| SMILES | viability at 8 µg/mL [1] [%] | MIC (S. aureus ATCC 29213) [µM] | MIC [2] [µM] | MIC [3] [µM] | MIC ([4]; 24 h, 24 h, 37 °C, MH broth) [µM] | MIC [5] [µM] | IC50 [6] [µM] | MIC [7, 10] [µM] | MIC [5, 11] [µM] | LD50 [8] [µM] | chlorophyll a fluorescence emission [9] | MIC [7] [µM] | MIC MRSA 3202 ([2]; clinical isolate MRSA 3202, 37 °C, MH broth) [µM] | MIC MRSA SA 630 ([3]; clinical isolate MRSA SA 630, 37 °C, MH broth) [µM] | activity fold higher than that of ampicillin ([4]; antibacterial activity against MRSA strains versus ampicillin) [fold] | MIC MRSA 63718 ([4]; clinical isolate MRSA 63718, 24 h, 37 °C, MH broth) [µM] |
| --- | --- | --- | --- | --- | --- | --- | --- | --- | --- | --- | --- | --- | --- | --- | --- | --- |
| CC(C)Oc1cccc(NC(=O)c2cc3ccccc3cc2O)c1 [Compound 7b, 3-Hydroxy-N-[3-(prop-2-yloxy)phenyl]naphthalene-2-carboxamide] | 10.7 | 796 (≈ 256 µg/mL) | 796 (≈ 256 µg/mL) | 796 (≈ 256 µg/mL) | 796 (≈ 256 µg/mL) | 24 (≈ 7.71 µg/mL) | 6.9 | 778 (≈ 250 µg/mL) |  |  |  |  |  |  |  |  |
| CCC(C)Oc1cccc(NC(=O)c2cc3ccccc3cc2O)c1 (stereo not drawn) [Compound 8b, N-[3-(But-2-yloxy)phenyl]-3-hydroxynaphthalene-2-carboxamide] | 21.7 | 763 (≈ 256 µg/mL) | 763 (≈ 256 µg/mL) | 763 (≈ 256 µg/mL) | 763 (≈ 256 µg/mL) |  | 8.3 | 745 (≈ 250 µg/mL) | 23 (≈ 7.71 µg/mL) | 2.7 ± 0.7 |  |  |  |  |  |  |
| CCOc1cccc(NC(=O)c2cc3ccccc3cc2O)c1 [Compound 4b, N-(3-Ethoxyphenyl)-3-hydroxynaphthalene-2-carboxamide] |  | 832 (≈ 256 µg/mL) | 832 (≈ 256 µg/mL) | 832 (≈ 256 µg/mL) | 832 (≈ 256 µg/mL) |  | 4.5 |  | 813 (≈ 250 µg/mL) |  | decreased intensity of the emission band at 686 nm | 813 (≈ 250 µg/mL) |  |  |  |  |
| COc1cccc(NC(=O)c2cc3ccccc3cc2O)c1 [Compound 3b, 3-hydroxy-N-(3-methoxyphenyl)naphthalene-2-carboxamide] |  | 873 (≈ 256 µg/mL) | 873 (≈ 256 µg/mL) | 873 (≈ 256 µg/mL) | 873 (≈ 256 µg/mL) |  | 53.4 | 426 (≈ 125 µg/mL) | 51 (≈ 15 µg/mL) | >30 |  |  |  |  |  |  |
| CCC(C)Oc1ccccc1NC(=O)c1cc2ccccc2cc1O (stereo not drawn) [Compound 8a, N-[2-(But-2-yloxy)phenyl]-3-hydroxynaphthalene-2-carboxamide] | 23.9 | 5.9 (≈ 1.98 µg/mL) | 12 (≈ 4.02 µg/mL) | 12 (≈ 4.02 µg/mL) | 12 (≈ 4.02 µg/mL) |  | 134 | 89 (≈ 29.9 µg/mL) | 23 (≈ 7.71 µg/mL) |  |  |  | 11.9 (≈ 3.99 µg/mL) | 11.9 (≈ 3.99 µg/mL) | ~4 | 11.9 (≈ 3.99 µg/mL) |
